From article PMC11864979, “First-in-class ultralong-target-residence-time p38α inhibitors as a mitosis-targeted therapy for colorectal cancer” (Nature Cancer, 2025)
Like-named read-outs stand apart in the source and are kept apart here.

Experiments:
Test in all cases: selectivity profiling in a panel of 340 wild-type kinases (Reaction Biology Europe)
Assay type in all cases: binding
340 wild-type kinases [1] = target: T1, 340 wild-type kinases (Homo sapiens, UniProt P36896)
T1 construct: purchased Reaction Biology Europe
T1 sequence (P36896 24-505): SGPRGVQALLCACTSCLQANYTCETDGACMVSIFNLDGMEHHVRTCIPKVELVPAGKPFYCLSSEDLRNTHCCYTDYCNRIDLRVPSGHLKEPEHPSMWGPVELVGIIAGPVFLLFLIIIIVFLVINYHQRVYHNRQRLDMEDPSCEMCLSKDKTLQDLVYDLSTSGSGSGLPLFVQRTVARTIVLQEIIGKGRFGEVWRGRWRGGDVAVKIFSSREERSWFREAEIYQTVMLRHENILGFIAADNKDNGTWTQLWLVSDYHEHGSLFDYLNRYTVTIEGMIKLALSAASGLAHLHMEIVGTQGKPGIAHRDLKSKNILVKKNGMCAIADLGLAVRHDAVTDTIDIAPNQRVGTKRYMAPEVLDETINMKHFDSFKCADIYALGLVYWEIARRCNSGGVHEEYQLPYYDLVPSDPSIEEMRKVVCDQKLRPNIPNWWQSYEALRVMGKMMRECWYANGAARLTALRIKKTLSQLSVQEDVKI

340 wild-type kinases [2] = target: T2, 340 wild-type kinases (Homo sapiens, UniProt P10398, Y301D/Y302D)
T2 construct: purchased Reaction Biology Europe
T2 sequence (P10398 1-606 Y301D/Y302D): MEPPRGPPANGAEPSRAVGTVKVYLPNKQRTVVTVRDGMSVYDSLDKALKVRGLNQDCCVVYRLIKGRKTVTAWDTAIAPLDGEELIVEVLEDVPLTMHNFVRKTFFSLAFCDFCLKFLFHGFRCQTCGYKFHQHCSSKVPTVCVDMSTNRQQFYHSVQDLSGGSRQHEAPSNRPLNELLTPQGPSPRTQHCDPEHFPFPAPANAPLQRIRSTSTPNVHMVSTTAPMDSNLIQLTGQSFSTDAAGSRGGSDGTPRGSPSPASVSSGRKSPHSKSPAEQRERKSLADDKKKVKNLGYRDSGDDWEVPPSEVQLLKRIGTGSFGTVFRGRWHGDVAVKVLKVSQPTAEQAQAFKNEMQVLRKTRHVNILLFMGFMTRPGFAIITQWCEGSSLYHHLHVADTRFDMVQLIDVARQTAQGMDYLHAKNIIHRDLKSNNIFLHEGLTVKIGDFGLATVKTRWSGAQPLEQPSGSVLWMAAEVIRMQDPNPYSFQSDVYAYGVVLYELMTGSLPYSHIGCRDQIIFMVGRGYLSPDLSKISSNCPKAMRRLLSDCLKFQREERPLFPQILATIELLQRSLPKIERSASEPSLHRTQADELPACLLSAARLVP

340 wild-type kinases [3] = target: T3, 340 wild-type kinases (Homo sapiens, UniProt Q15131)
T3 construct: purchased Reaction Biology Europe

340 wild-type kinases [4] = target: T4, 340 wild-type kinases (Homo sapiens, UniProt Q8NG66)
T4 construct: purchased Reaction Biology Europe
T4 sequence (Q8NG66 1-645): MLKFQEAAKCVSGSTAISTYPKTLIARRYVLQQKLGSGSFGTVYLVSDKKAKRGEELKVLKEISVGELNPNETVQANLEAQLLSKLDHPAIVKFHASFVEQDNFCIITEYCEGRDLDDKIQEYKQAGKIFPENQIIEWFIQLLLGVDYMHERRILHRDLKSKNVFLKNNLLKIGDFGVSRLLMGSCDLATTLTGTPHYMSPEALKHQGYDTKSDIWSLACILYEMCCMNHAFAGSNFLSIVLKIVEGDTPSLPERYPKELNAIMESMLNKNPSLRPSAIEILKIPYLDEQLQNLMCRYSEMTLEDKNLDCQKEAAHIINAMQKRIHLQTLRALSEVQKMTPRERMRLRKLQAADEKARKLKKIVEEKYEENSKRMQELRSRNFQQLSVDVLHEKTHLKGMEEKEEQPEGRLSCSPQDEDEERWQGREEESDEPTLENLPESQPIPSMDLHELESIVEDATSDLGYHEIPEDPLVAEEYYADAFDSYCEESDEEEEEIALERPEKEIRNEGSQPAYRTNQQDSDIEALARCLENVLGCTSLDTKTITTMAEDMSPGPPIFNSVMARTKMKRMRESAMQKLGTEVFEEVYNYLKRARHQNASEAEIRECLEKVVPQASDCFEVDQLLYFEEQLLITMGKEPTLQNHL

340 wild-type kinases [5] = target: T5, 340 wild-type kinases (Homo sapiens, UniProt O75116)
T5 construct: purchased Reaction Biology Europe

340 wild-type kinases [6] = target: T6, 340 wild-type kinases (Homo sapiens, UniProt P29376)
T6 construct: purchased Reaction Biology Europe

340 wild-type kinases [7] = target: T7, 340 wild-type kinases (Homo sapiens, UniProt P36897)
T7 construct: purchased Reaction Biology Europe
T7 sequence (P36897 34-503): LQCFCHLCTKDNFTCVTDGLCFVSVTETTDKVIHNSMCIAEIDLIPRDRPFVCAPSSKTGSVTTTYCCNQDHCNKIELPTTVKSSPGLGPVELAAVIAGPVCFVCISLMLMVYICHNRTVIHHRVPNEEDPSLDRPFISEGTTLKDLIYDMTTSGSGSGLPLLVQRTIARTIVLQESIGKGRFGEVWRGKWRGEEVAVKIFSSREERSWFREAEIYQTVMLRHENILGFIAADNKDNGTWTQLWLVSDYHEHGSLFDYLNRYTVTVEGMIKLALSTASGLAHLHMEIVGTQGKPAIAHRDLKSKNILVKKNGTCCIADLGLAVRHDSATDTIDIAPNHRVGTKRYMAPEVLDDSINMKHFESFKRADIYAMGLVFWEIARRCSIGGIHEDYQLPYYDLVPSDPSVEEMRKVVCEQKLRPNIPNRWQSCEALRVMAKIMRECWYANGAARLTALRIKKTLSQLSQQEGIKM

T3 sequence (Q15131 whole entry): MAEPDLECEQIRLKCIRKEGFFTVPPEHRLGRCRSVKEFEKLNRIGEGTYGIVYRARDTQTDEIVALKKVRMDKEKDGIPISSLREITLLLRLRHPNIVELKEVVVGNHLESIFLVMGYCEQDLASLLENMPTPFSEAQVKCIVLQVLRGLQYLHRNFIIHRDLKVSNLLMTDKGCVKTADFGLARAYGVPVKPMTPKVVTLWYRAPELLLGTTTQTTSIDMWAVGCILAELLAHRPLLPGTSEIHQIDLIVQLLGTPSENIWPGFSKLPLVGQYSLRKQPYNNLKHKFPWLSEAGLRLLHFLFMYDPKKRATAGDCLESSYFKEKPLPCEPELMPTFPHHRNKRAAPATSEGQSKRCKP
T6 sequence (P29376 17-864): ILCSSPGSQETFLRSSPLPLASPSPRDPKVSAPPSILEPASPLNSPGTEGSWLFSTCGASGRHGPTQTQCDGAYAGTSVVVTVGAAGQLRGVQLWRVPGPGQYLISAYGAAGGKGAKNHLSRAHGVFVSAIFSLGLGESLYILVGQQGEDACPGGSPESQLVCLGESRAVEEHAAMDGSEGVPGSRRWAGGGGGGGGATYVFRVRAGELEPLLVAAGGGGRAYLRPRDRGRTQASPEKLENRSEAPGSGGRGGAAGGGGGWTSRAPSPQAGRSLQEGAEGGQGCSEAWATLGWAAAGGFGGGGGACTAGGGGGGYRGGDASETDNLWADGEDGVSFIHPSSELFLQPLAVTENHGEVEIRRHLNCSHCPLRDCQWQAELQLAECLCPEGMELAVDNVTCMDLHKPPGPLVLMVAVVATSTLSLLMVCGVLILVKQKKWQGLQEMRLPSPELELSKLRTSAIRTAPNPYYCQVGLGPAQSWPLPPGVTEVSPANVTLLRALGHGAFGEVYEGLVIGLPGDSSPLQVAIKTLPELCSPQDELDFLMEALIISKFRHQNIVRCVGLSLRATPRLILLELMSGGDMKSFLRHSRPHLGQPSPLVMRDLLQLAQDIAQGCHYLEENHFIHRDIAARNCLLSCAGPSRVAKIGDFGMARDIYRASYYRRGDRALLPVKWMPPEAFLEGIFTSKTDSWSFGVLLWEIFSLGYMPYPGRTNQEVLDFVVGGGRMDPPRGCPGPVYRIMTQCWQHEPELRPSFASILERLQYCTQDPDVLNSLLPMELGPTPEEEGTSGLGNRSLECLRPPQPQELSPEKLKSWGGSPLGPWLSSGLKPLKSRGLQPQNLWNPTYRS
T5 sequence (O75116 whole entry): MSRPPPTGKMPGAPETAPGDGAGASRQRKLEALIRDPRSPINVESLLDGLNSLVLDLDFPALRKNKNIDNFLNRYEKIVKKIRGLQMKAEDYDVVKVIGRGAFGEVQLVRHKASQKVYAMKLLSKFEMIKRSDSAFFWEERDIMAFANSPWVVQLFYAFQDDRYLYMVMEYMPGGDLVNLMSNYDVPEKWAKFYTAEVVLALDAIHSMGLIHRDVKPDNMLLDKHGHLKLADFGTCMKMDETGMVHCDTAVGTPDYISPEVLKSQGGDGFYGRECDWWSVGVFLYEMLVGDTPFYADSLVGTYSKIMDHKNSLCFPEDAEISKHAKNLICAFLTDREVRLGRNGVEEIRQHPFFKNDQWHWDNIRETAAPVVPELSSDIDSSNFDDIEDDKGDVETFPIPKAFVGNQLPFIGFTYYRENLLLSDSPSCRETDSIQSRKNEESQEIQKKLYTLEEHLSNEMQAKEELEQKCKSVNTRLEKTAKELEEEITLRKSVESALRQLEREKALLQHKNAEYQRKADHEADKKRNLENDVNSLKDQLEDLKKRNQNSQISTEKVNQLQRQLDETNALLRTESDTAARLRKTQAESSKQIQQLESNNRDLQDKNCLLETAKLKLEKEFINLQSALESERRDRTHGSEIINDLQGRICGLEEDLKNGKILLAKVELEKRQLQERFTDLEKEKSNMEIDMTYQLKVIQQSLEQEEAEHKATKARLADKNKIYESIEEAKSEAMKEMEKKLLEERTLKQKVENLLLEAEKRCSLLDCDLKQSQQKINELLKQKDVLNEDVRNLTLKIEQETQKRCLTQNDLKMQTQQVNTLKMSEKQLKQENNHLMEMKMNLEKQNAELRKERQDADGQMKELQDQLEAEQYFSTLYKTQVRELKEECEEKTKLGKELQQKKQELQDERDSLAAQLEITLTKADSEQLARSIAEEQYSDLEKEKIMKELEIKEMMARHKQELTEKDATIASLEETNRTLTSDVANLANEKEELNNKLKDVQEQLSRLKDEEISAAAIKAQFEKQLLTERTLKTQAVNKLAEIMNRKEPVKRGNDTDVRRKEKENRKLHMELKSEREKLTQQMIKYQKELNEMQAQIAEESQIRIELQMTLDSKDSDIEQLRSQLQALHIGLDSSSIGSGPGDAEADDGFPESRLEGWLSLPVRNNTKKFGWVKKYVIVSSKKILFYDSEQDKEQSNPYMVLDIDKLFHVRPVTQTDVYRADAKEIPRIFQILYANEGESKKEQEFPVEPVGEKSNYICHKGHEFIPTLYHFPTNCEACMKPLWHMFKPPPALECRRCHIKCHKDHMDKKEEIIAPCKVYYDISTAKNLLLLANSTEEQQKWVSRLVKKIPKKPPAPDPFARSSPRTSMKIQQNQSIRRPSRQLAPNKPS

SMILES: CNC(=O)c1ccc2c(c1)C(=O)c1ccc(Nc3ccc(F)c(NC(=O)C4CC4)c3)cc1CC2 [Compound 2015]
- remaining activity at 0.2 µM (340 wild-type kinases [1]; 0.2 µM 2015, read-out: ACVR1B residual activity): 101%
- remaining activity at 0.2 µM (340 wild-type kinases [1]; ACVR1B, 0.2 µM, read-out: residual activity): 101%
- remaining activity at 1 µM (340 wild-type kinases [1]; ACVR1B, 1 µM, read-out: residual activity): 86.1%
- remaining activity at 0.2 µM (340 wild-type kinases [2]; 0.2 µM 2015, read-out: ARAF YDYD residual activity): 98.8%
- remaining activity at 1 µM (340 wild-type kinases [2]; 1 µM 2015, read-out: ARAF YDYD residual activity): 106%
- remaining activity at 0.2 µM (340 wild-type kinases [2]; ARAF YDYD, 0.2 µM, read-out: residual activity): 98.8%
- remaining activity at 1 µM (340 wild-type kinases [2]; ARAF YDYD, 1 µM, read-out: residual activity): 106%
- remaining activity at 0.2 µM (340 wild-type kinases [3]; 0.2 µM 2015, read-out: CDK10/CycQ residual activity): 108%
- remaining activity at 1 µM (340 wild-type kinases [3]; 1 µM 2015, read-out: CDK10/CycQ residual activity): 97.1%
- remaining activity at 0.2 µM (340 wild-type kinases [3]; CDK10/CycQ, 0.2 µM, read-out: residual activity): 108%
- remaining activity at 1 µM (340 wild-type kinases [3]; CDK10/CycQ, 1 µM, read-out: residual activity): 97.1%
- remaining activity at 1 µM (340 wild-type kinases [4]; 1 µM 2015, read-out: NEK11 residual activity): 95.8%
- remaining activity at 0.2 µM (340 wild-type kinases [4]; NEK11, 0.2 µM, read-out: residual activity): 91.3%
- remaining activity at 1 µM (340 wild-type kinases [4]; NEK11, 1 µM, read-out: residual activity): 95.8%
- remaining activity at 0.2 µM (340 wild-type kinases [5]; 0.2 µM 2015, read-out: ROCK2 residual activity): 89%
- remaining activity at 1 µM (340 wild-type kinases [5]; 1 µM 2015, read-out: ROCK2 residual activity): 86.3%
- remaining activity at 0.2 µM (340 wild-type kinases [5]; ROCK2, 0.2 µM, read-out: residual activity): 89%
- remaining activity at 1 µM (340 wild-type kinases [5]; ROCK2, 1 µM, read-out: residual activity): 86.3%
- remaining activity at 0.2 µM (340 wild-type kinases [6]; 0.2 µM 2015, read-out: LTK residual activity): 100%
- remaining activity at 1 µM (340 wild-type kinases [6]; 1 µM 2015, read-out: LTK residual activity): 99.3%
- remaining activity at 0.2 µM (340 wild-type kinases [6]; LTK, 0.2 µM, read-out: residual activity): 100%
- remaining activity at 1 µM (340 wild-type kinases [6]; LTK, 1 µM, read-out: residual activity): 99.3%
- remaining activity at 0.2 µM (340 wild-type kinases [7]; 0.2 µM 2015, read-out: TGFBR1 residual activity): 84.1%
- remaining activity at 1 µM (340 wild-type kinases [7]; 1 µM 2015, read-out: TGFBR1 residual activity): 90.9%
- remaining activity at 0.2 µM (340 wild-type kinases [7]; TGFBR1, 0.2 µM, read-out: residual activity): 84.1%
- remaining activity at 1 µM (340 wild-type kinases [7]; TGFBR1, 1 µM, read-out: residual activity): 90.9%
